Data as given in patent publication US11485736B2 (KSQ Therapeutics, Inc., priority 2018, dated 2022).
Like-named read-outs stand apart in the source and are kept apart here.

Columns and labels:
[1] = ADME solubility determination at pH 2.0 and pH 7.4; assay type: physicochemical; settings: aqueous buffer, thermodynamic from solid, LC-MS/MS
Experimental: Certain Compounds of the Disclosure were assessed for ADME solubility at pH 2.0 and pH 7.4.
Stock solutions were prepared by adding each compound to DMSO at a concentration of 10 mM. Samples were prepared by adding 50 μL of each stock solution to separate vials. The vials were loaded onto a 96-well rack and dried. 500 μL of Phosphate Buffered Saline (PBS) pH 7.4 or PBS pH 2.0 were added into each vial. The vials were then shaken at 25° C. and 1,100 rpm for 24 hours.
After 24 hours, the vials were centrifuged at 3220 G and 25° C. for 30 minutes. The supernatant fluid was analyzed by LC-MS/MS against a standard of known concentration. The solubility of each sample was then calculated using the equation below:
[formula] where DF is the dilution factor.

[2] = Liver microsomal stability, human liver microsomes; assay type: in vitro ADME; settings: 1 μM compound, NADPH, read-out: t1/2 (min) in HLM
Experimental: (§1) Certain Compounds of the Disclosure were assessed for ADME metabolic stability in human liver microsomes (HLM) and rat liver microsomes (RLM).
(§2) Samples were prepared by adding 222.5 μL of a master solution (100 mM phosphate buffer and 1 mg/mL liver microsomes (HLM or RLM)) and 25 μL of a 10 mM NADPH solution to incubation plates, which were then warmed for 10 min. Each compound was separately dissolved in DMSO to prepare 10 mM stock solutions, which were then diluted to 100 μM with acetonitrile. A reaction was started by adding 2.5 μL of the 100 μM solution of each compound to separate incubation plates such that the final concentration of for each compound in each plate was 1 μM.
(§3) 25 μL aliquots of each sample were taken at 0.5, 5, 10, 15, 20 and 30 minutes, and the reaction was stopped by adding 5 volumes of cold acetonitrile with IS (100 nM alprazolam, 200 nM caffeine and 100 nM tolbutamide). The samples were then centrifuged at 3,220 G for 30 minutes, and 100 μL of the supernatant fluid was mixed with 100 μL of ultra-pure H2O.
(§4) The samples were then analyzed by LC-MS/MS. Peak areas were determined from extracted ion chromatograms. Slope values (k) were determined by linear regression of the natural logarithm of the remaining percentage of the compound vs. incubation time curve. […] The in vitro half-life (min) was converted into the in vitro intrinsic clearance (in vitro CLint, in μL/min/mg protein) using the following equation: […]

[3] = Liver microsomal stability, rat liver microsomes; assay type: in vitro ADME; settings: 1 μM compound, NADPH, read-out: t1/2 (min) in RLM
Experimental: as §1, §2, §3, §4

[4] = PBS pH 2.0, shaken at 25° C. for 24 hours, read-out: Solubility at pH 2.0
[5] = PBS pH 7.4, shaken at 25° C. for 24 hours, read-out: Solubility at pH 7.4

| solubility at 24 h ([1]; phosphate buffered saline, PBS pH 2.0, shaken at 25° C. for 24 hours, read-out: Solubility at pH 2.0) [µM] | solubility at 24 h ([1]; phosphate buffered saline, PBS pH 7.4, shaken at 25° C. for 24 hours, read-out: Solubility at pH 7.4) [µM] | half-life at 1 μM [2] [min] | half-life at 1 μM [3] [min] | solubility at 24 h [1, 4] [µM] | solubility at 24 h [1, 5] [µM] | SMILES |
| --- | --- | --- | --- | --- | --- | --- |
| > 10 | < 10 | > 25 | > 25 | – | – | COc1ncnc(C2CC2)c1-c1ncc2cnn(Cc3ccc(-c4nc(C(F)(F)F)nn4C)cc3)c2n1 [Example 56] |
| – | – | > 25 | > 25 | > 10 | > 10 | COc1ncnc(C2CC2)c1-c1ncc2cnn(Cc3ccc(-c4nc(C(F)(F)F)nn4C)c(F)c3)c2n1 [Example 57] |
| – | – | > 25 | > 25 | < 10 | < 10 | COc1ncnc(C2CC2)c1-c1ncc2cnn(Cc3ccc(-c4nc(C(F)(F)F)nn4C(C)C)cc3)c2n1 [Example 58] |
| – | – | < 25 | < 25 | < 10 | < 10 | CCn1cc(C(F)(F)F)nc1-c1ccc(Cn2ncc3cnc(-c4c(OC(C)(C)C)ncnc4C4CC4)nc32)cc1 [Example 59] |
| – | – | > 25 | < 25 | < 10 | < 10 | CCn1cc(C(F)(F)F)nc1-c1ccc(Cn2ncc3cnc(-c4c(OC(F)F)ncnc4C4CC4)nc32)cc1 [Example 61] |
| – | – | > 25 | < 25 | > 10 | < 10 | CCn1cc(C(F)(F)F)nc1-c1ccc(Cn2ncc3cnc(-c4c(OC5CC5)ncnc4C4CC4)nc32)cc1 [Example 63] |
| – | – | < 25 | < 25 | < 10 | < 10 | CCn1cc(C(F)(F)F)nc1-c1ccc(Cn2ncc3cnc(-c4c(OC5CCC5)ncnc4C4CC4)nc32)cc1 [Example 64] |
| – | – | > 25 | > 25 | > 10 | < 10 | [2H]C([2H])([2H])Oc1ncnc(C2CC2)c1-c1ncc2cnn(Cc3ccc(-c4nc(C(F)(F)F)cn4CC)cc3)c2n1 [Example 67] |
| – | – | < 25 | < 25 | < 10 | < 10 | CCn1cc(C(F)(F)F)nc1-c1ccc(Cn2ncc3cnc(-c4c(C5CC5)cnn4CC)nc32)cc1 [Example 68] |
| – | – | < 25 | < 25 | > 10 | > 10 | COc1ncnc(C2CC2)c1-c1ncc2cnn(Cc3ccc(-c4nc(C#N)cn4C)cc3)c2n1 [Example 69] |
| – | – | > 25 | < 25 | < 10 | < 10 | COc1ncnc(C2CC2)c1-c1ncc2cnn(Cc3ccc(-n4nc(C#N)cc4OC)cc3)c2n1 [Example 70] |
| – | – | > 25 | > 25 | < 10 | < 10 | COc1ncnc(C2CC2)c1-c1ncc2cnn(Cc3ccc(-n4nc(C(F)(F)F)cc4C#N)cc3)c2n1 [Example 71] |
| – | – | < 25 | < 25 | > 10 | > 10 | COc1cn(C(C)C)c(-c2ccc(Cn3ncc4cnc(-c5c(OC)ncnc5C5CC5)nc43)cc2)n1 [Example 74] |
| – | – | > 25 | > 25 | < 10 | < 10 | CCn1cc(C(F)(F)F)nc1-c1ccc(Cn2ncc3cnc(-c4c(OC)ncnc4C4CC4)nc32)cn1 [Example 75] |
| – | – | > 25 | > 25 | < 10 | < 10 | CCOc1cc(C(F)(F)F)nn1-c1ccc(Cn2ncc3cnc(-c4c(OC)ncnc4C4CC4)nc32)cc1 [Example 76] |
| – | – | < 25 | < 25 | < 10 | < 10 | COCCOc1cc(C(F)(F)F)nn1-c1ccc(Cn2ncc3cnc(-c4c(OC)ncnc4C4CC4)nc32)cc1 [Example 77] |

| solubility at 24 h ([1]; phosphate buffered saline, PBS pH 2.0, shaken at 25° C. for 24 hours, read-out: Solubility at pH 2.0) [µM] | solubility at 24 h ([1]; phosphate buffered saline, PBS pH 7.4, shaken at 25° C. for 24 hours, read-out: Solubility at pH 7.4) [µM] | half-life at 1 μM [2] [min] | half-life at 1 μM [3] [min] | solubility at 24 h [1, 4] [µM] | solubility at 24 h [1, 5] [µM] | SMILES |
| --- | --- | --- | --- | --- | --- | --- |
| – | – | > 25 | > 25 | < 10 | < 10 | COc1ncnc(C2CC2)c1-c1ncc2cnn(Cc3ccc(-n4nc(C(F)(F)F)cc4OCCO)cc3)c2n1 [Example 78] |
| – | – | > 25 | > 25 | < 10 | < 10 | COc1ncnc(C2CC2)c1-c1ncc2cnn(Cc3ccc(-n4nc(C(F)(F)F)cc4OC)nc3)c2n1 [Example 79] |
| – | – | < 25 | < 25 | < 10 | < 10 | COc1cnn(C2CC2)c1-c1ncc2cnn(Cc3ccc(-c4nc(C(F)(F)F)cn4C)cc3)c2n1 [Example 81] |
| – | – | < 25 | < 25 | < 10 | < 10 | CCn1cc(C(F)(F)F)nc1-c1ccc(Cn2ncc3cnc(-c4c(OC)cnn4C4CC4)nc32)cc1 [Example 82] |
| – | – | < 25 | < 25 | > 10 | < 10 | COc1cnn(C2CC2)c1-c1ncc2cnn(Cc3ccc(-c4nc(C(F)(F)F)cn4C(C)C)cc3)c2n1 [Example 83] |
| – | – | < 25 | < 25 | < 10 | < 10 | CCn1cc(C(F)(F)F)nc1-c1ccc(Cn2ncc3cnc(-c4c(OC)cnn4C4CCC4)nc32)cc1 [Example 84] |
| – | – | > 25 | > 25 | < 10 | < 10 | COc1ncnc(C2CC2)c1-c1ncc2cnn(Cc3ccc(-c4nc(C(F)(F)F)n(C)n4)cc3)c2n1 [Example 85] |
| – | – | > 25 | > 25 | > 10 | > 10 | COc1ncnc(OC)c1-c1ncc2cnn(Cc3ccc(-c4nc(C(F)(F)F)cn4C)cc3)c2n1 [Example 86] |
| – | – | > 25 | > 25 | > 10 | > 10 | CCn1cc(C(F)(F)F)nc1-c1ccc(Cn2ncc3cnc(-c4c(OC)ncnc4OC)nc32)cc1 [Example 87] |
| – | – | > 25 | < 25 | > 10 | > 10 | CCn1cc(C(F)(F)F)nc1-c1ccc([C@H](C)n2ncc3cnc(-c4c(OC)ncnc4OC)nc32)cc1 [Example 88] |
| – | – | > 25 | > 25 | > 10 | > 10 | CCn1cc(C(F)(F)F)nc1-c1ccc([C@@H](C)n2ncc3cnc(-c4c(OC)ncnc4OC)nc32)cc1 [Example 89] |
| – | – | > 25 | > 25 | > 10 | > 10 | COc1ncnc(OC)c1-c1ncc2cnn(Cc3ccc(-c4nc(C(F)(F)F)cn4C(C)C)cc3)c2n1 [Example 90] |
| – | – | < 25 | < 25 | > 10 | < 10 | CCOc1ncnc(OCC)c1-c1ncc2cnn(Cc3ccc(-c4nc(C(F)(F)F)cn4CC)cc3)c2n1 [Example 91] |
| – | – | > 25 | > 25 | < 10 | < 10 | CCn1cc(C(F)(F)F)nc1-c1ccc([C@H](C)n2ncc3cnc(-c4c(OC)ncnc4C4CC4)nc32)cc1F [Example 96] |
| – | – | > 25 | > 25 | > 10 | < 10 | COc1ncnc(C2CC2)c1-c1ncc2cnn([C@@H](C)c3ccc(-c4nc(C(F)(F)F)cn4C(C)C)cc3)c2n1 [Example 97] |
